System: rats
Assay: 4 hour acute inhalation toxicity in rats
Format: in vivo
Settings: rats dosed at 10,000 or 619 ppm vol/vol in air for 4 hours, 14 day post-dose monitoring; LC-50 estimated, interpreted as highest exposure level tested
Description: The 4 hour acute inhalation toxicity of Example 3 and CE2 in rats was determined by dosing animals at 10,000 or 619 ppm vol/vol in air (per Table 4) for 4 hours followed by 14 day post-dose monitoring. Based on the animal test results and the vapor concentration of the test compound, the LC-50 values were estimated. The NOEL (No Effect Level) value of CE3 was obtained from du Pont de Nemours trade literature. The 4 hr inhalation LC-50 value for CE4 was obtained from Solvay MSDS.

`FC(=C(C(F)(F)F)C(F)(F)C(F)(F)C(F)(F)F)C(F)(C(F)(F)F)C(F)(F)F` [Example 3, 1,1,1,2,3,5,5,6,6,7,7,7-dodecafluoro-2,4-bis(trifluoromethyl)hept-3-ene] was tested, and the “LC-50 (4 hr Inhalation in Rats)” value was >10,000 ppmv.

Source: patent US10662359B2, “Heat transfer fluids and methods of using same” (3M INNOVATIVE PROPERTIES COMPANY, priority 2017, dated 2020)
